Where “and” joins values, the source holds several entries; their conditions need not be identical. Equal values may be shown once. Read-outs that look alike come from different tables or passages of the source.
What was measured:
human OGG1 enzyme [1] = molecular target: T1, human OGG1 enzyme (Homo sapiens, UniProt O15527); assay: Differential scanning fluorimetry (DSF) thermal shift assay; type: binding; design: ∆Tm (K): unit of the concentration uncertain; conditions: for ΔTm: concentration not given
T1 sequence (O15527 whole entry): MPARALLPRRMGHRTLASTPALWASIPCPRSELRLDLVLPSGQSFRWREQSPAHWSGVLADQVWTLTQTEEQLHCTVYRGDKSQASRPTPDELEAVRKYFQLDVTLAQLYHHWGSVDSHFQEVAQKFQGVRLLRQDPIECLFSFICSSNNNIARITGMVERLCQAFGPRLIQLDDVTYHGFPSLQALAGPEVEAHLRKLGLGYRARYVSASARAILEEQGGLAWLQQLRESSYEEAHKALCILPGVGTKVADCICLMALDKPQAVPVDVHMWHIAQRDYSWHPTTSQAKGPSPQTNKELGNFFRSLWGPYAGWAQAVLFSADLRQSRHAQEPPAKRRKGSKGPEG
Experimental: The temperature was increased from 20 °C to 85 °C with 10 readings/degree. Tm values were calculated using an excel template and fitting to the Boltzmann equation in Prism v.6.07 (GraphPad Software).

human OGG1 enzyme [2] = molecular target: T1, human OGG1 enzyme; assay: OGG1 glycosylase activity assay (enzyme inhibition, APE1-coupled fluorescence); type: biochemical
Experimental: “8” signifies 8-oxoA and “FAM” and “Dab” signify fluorescein and dabcyl (TriLink Biotech). Briefly, compounds dissolved in DMSO were dispensed using an Echo 550 (Labcyte), followed by transfer of enzyme and substrate solutions manually with a 16-channel pipette or with a Multidrop (Thermo Scientific). The plates were centrifuged, sealed and incubated at room temperature overnight (15 h) and read the following morning in an Hidex Sense plate reader (Hidex Oy) using a 485-nm filter with a bandwidth of 10 nm for excitation and a 535-nm filter with a bandwidth of 20 nm for emission.

[3] = test system: NF-κB activation in HEK293T pGF NF-κB cells; assay: TNF-α induced NF-κB activation assay; type: cell-based; conditions: Homo sapiens, HEK-293T; NFκB activation assay; ± SD; read-out: pEC50 (converted)
Experimental: The inhibition of TNF-α induced NF-κB activation was measured in HEK293T cells transfected with the pGreenfire NF-κB plasmid. This is a plasmid that has NF-κB response elements (TRE) coupled to GFP and luciferase expression. When the NF-κB is activated by TNF-α, it binds to the TRE and induces GFP expression, and the fluorescence can be measured in a plate reader. The cells were authenticated with STR profiling, frozen down and these stocks were used in experiments. The HEK293T pGF NF-κB cells were kept in DMEM with 5% FBS and 1% P/S but, when seeded for the assay the medium was changed to DMEM FluoroBrite with 1% dialyzed FBS. All cell culture reagents were purchased from Thermo Fisher Scientific. Compounds were nano-dispensed (Echo acoustic dispenser) in 96-well, black/clear, assay plates (Corning #3904), duplicate plates, in 8-points dose-response curves, 1:2 dilutions, with DMSO compensation (0.3% DMSO). Cells were seeded at 30000 cells/well in medium containing 10 ng/mL of TNF-α (Sigma-Aldrich), except negative control wells which only contained cells in medium. Cells were cultured for 24 hours in a humidified incubator at 37 °C with 5% CO2 after which the GFP fluorescence was measured in a Sense plate reader (Hidex) with ex485/em535. The RFU data from the duplicate plates were combined to calculate % inhibition of NF-κB activation and IC50-values were calculated using XLfit (IDBS). In parallel with the NF-κB assay, a CellTiterGlo (Promega) cell viability assay was run to exclude compounds affecting cell viability. Compounds were nano-dispensed (Echo acoustic dispenser) in assay plates in 11-points dose-response curves, 1:3 dilutions, without DMSO compensation, with duplicates on the same plate. Cells were seeded at 7500 cells/well in 25 µL medium (DMEM FluoroBrite with 1% dialyzed FBS) containing 10 ng/mL TNF-α and cultured for 24 hours, with column 24 containing only culture medium. After equilibration to room temperature, the CellTiterGlo reagents were mixed and 25 µL/well were added to the cell plate. After 2 min mixing of the plate on an orbital shaker, the plate was incubated for 10 min at room temperature followed by luminescence reading in Sense. The cell viability was calculated compared to untreated control wells and the EC50 values were determined in XLfit (IDBS). […]

[4] = Table S2, virtual fragment screen hits, read-out: pIC50 (converted)
[5] = 495 (unit uncertain) as printed in sheet footnote
[6] = 99 (unit uncertain) as printed in sheet footnote

SMILES | ∆Tm (K) (human OGG1 enzyme [1]; 99 μM) | ∆Tm (K) (human OGG1 enzyme [1]; 495 µM) | other results
CCc1ccc(C(=O)NC[C]2CS(=O)(=O)c3ccccc3O2)cc1 [ZINC001002782586] | -0.13 K | – | –
COc1ccc([C]2CCCCCN2C(=O)Nc2noc(C)c2C)cc1 [ZINC000455661485] | -0.14 K | – | –
CC1CC1CNC(=O)C1CCc2cccnc21 (stereo not shown) [ZINC000341791847] | – | 0.38 K | –
CC1(C)CC(NC(=O)c2csc3cncn23)C1 [compound 4] | – | 0.5 K | IC50 (human OGG1 enzyme [2]; [4]): > 100 µM; ∆Tm (K) (human OGG1 enzyme [1]; [5]): 0.5 K
Cc1cc(CNC(=O)c2c(O)cccc2F)[nH]n1 [ZINC000681276767] | – | 0.01 K | –
Cc1cnc(Nc2ncnc3ccccc23)s1 [ZINC000031949200] | – | -0.03 K | –
Cn1ncc(NC(=O)N[C]2COc3ccc(Cl)cc32)c1C(F)F [ZINC000337657385] | -0.16 K | – | –
O=C(Cn1c(C(F)(F)F)nc2ccccc21)NCc1ccccc1 [ZINC000032814728] | 0.79 K | – | –
Cc1ccc(NC(=O)Nc2c[nH]nc2C)s1 [ZINC000075413056] | – | 0.35 K | –
O=C(NCc1nc(-c2ccccc2)no1)c1cn(-c2ccccc2)nn1 [ZINC000507023994] | -0.92 K | – | –
CCN(Cc1ccccc1)S(=O)(=O)NC1Cc2ccccc2C1 [ZINC001146929060] | 0.00 K and 0 K | – | –
O=S(=O)(Nc1ccc(Cl)cc1F)N1CCc2ccccc2C1 [ZINC000990255105] | -0.03 K | – | –
CCC(C)(O)C(=O)Nc1nnc2n1CCCC2 (stereo not shown) [ZINC000935297684] | – | -0.15 K | –
Cn1c(=O)n(C)c2cc(Nc3ncnc4ccccc34)ccc21 [ZINC000358521717] | 0.43 K | – | –
C[C]C(=O)Nc1nnc2ccccn12 [ZINC000613462643] | 0.05 K | – | –
Cc1conc1NC(=O)c1nc(Cl)cs1 [ZINC000789997344] | – | -0.03 K | –
Cc1ccn2c(NC(=O)C3(Oc4ccc(Cl)cc4)CC3)nnc2c1 [ZINC000341519123] | 0.37 K | – | –
CC1(C)CC1(C)NC(=O)c1cc2cccn2cn1 (stereo not shown) [compound 2] | – | 1.6 K and > 1 K | IC50 (human OGG1 enzyme [2]; [4]): > 100 µM; ∆Tm (K) (human OGG1 enzyme [1]; [5]): 1.6 K
COc1ccc(F)cc1CNC(=O)c1cn[nH]c1 [ZINC000188683358] | – | -0.01 K | –
Cc1conc1NC(=O)c1csc2cncn12 [ZINC000772563154] | – | 0.52 K | –
O=C(Cc1c(F)cccc1F)Nc1noc2c1CCCC2 [compound 6] | 1.1 ± 0.5 K | – | IC50 (human OGG1 enzyme [2]; Table 1, mean ± SD, at least three independent replicates, read-out: pIC50 (converted)): 36.3 µM; ∆Tm (K) (human OGG1 enzyme [1]; [6]): 1.1 ± 0.5 K
O=C(NCC1(O)CN(C(=O)c2cccnn2)C1)c1ccc(Cl)cc1 [ZINC000584413720] | 0.65 K | – | –
Cc1cccc2nc(C(=O)NCc3ccc(Br)o3)cn12 [ZINC000677630607] | -0.08 K | – | –

SMILES | ∆Tm (K) (human OGG1 enzyme [1]; 99 μM) | ∆Tm (K) (human OGG1 enzyme [1]; 495 µM) | other results
Cc1n[nH]cc1CNC(=O)C(C)c1ccccc1 (stereo not shown) [ZINC000182379077] | – | 0.08 K | –
CC(C)(NC(=O)NCc1ccco1)c1ccc(Br)cc1 [ZINC000088254610] | 0.27 K | – | –
Cc1n[nH]cc1CNC(=O)NC1(C)CC1(C)C (stereo not shown) [ZINC000663691150] | – | 0.01 K | –
O=C(Nc1noc2c1CCCC2)[C@H]1Cc2ccccc21 [compound 5] | 4.1 ± 0.7 K | – | IC50 (human OGG1 enzyme [2]; read-out: IC50): 58 µM; ∆Tm (K) (human OGG1 enzyme [1]; [6]): 4.1 ± 0.7 K; ΔTm (human OGG1 enzyme [1]): 4.1 K
C[C](CCc1ccccc1)C(=O)N1CC(c2ccccc2)C1 [ZINC000342133714] | 0.08 K | – | –
Cc1nocc1NC(=O)Nc1ccnn1C(C)C [ZINC000866108350] | – | -0.03 K | –
COc1ccc2[nH]cc(CC(=O)Nc3nnc4cc(C)ccn34)c2c1 [ZINC000520908378] | -0.38 K | – | –
CN1C(=O)Cc2cc(Nc3ncnc4c(F)cccc34)ccc21 [ZINC000350560229] | -0.01 K | – | –
C=Cc1ccc(C(=O)NCc2cn(-c3ccccc3)nc2C)cc1 [ZINC000192206237] | 0.83 K | – | –
Cc1ccc(C(=O)NCc2nc(-c3cccnc3)no2)cc1C [ZINC001046413262] | -0.07 K | – | –
Cc1csc(NC(=O)c2ccc(N)cc2)n1 [ZINC000005740683] | – | 0.52 K | –
C[C](CNC(=O)c1cn2c(n1)CCC2)Oc1ccc(Cl)cc1 [ZINC000047544921] | 0.05 K | – | –
Cc1csc(NC(=O)N2CC(C)C(O)C2)n1 (stereo not shown) [ZINC000350512979] | – | 0.07 K | –
O=C(Cc1ccc(-n2ncc3c2CNCC3)cc1)Nc1noc2c1CCCC2 [compound 15] | – | – | EC50 [3]: 13.2 µM
Cc1csc(Nc2ncnc3sccc23)n1 [ZINC000163077816] | – | -0.51 K | –
Cc1cc(=O)c(C(=O)NC2(C)CC2(C)C)c[nH]1 (stereo not shown) [ZINC000620078540] | – | 0.03 K | –
Cc1cscc1NC(=O)NCc1cccc(-n2cncn2)c1 [ZINC001624168456] | 0.15 K | – | –
Cn1nc(Nc2ncnc3cc(F)c(F)cc23)cc1C1CC1 [ZINC000439491208] | -0.04 K | – | –
O=C(NCc1ccn(-c2ccccc2)n1)c1cc(-c2ccccc2)no1 [ZINC000617287579] | -0.19 K | – | –
O=C(NCC1(O)CCC1)c1nc(Cl)cs1 [ZINC000789956517] | – | 0.07 K | –
COCc1csc(NCc2ccccc2)n1 [ZINC000196610182] | – | -0.06 K | –
COc1ccc(C2(CNC(=O)c3ccc(F)s3)CCC2)cc1 [ZINC000572161337] | 0.17 K | – | –
Cc1ccc(NC(=O)N2CC(O)(c3ccc(Cl)cc3)C2)s1 [ZINC000776423770] | -0.42 K | – | –

SMILES | ∆Tm (K) (human OGG1 enzyme [1]; 99 μM) | ∆Tm (K) (human OGG1 enzyme [1]; 495 µM) | other results
Cn1ccnc1NC(=O)c1nc(Cl)cs1 [ZINC000851710058] | – | -0.05 K | –
Cn1ncc2c(Nc3cccc(-c4cccs4)c3)ncnc21 [ZINC000445022399] | -0.23 K | – | –
C[C](CNC(=O)c1cn(-c2ccccc2)nn1)Oc1ccc(C)cc1 [ZINC000080662795] | -0.11 K | – | –
Cc1n[nH]cc1CNC(=O)C1Cc2ccccc21 (stereo not shown) [ZINC000088452370] | – | 0.26 K | –
C[C](NC(=O)c1ccc(C)nc1)c1cnn(-c2ccc(F)cc2)c1C [ZINC000142711832] | -0.11 K | – | –
c1cnc2ccc(CNc3nnc4ccccn34)cc2c1 [ZINC000155922887] | inactivea | – | –
CCCC1CCCC1C(=O)NCc1c[nH]nc1C (stereo not shown) [ZINC000294547394] | – | 0.18 K | –
Cc1ccc(CNC(=O)Nc2cnn(C)c2C(F)(F)F)c(C)c1 [ZINC000000241283] | 0.39 K | – | –
O=C(NC1CN(C(=O)c2ccc(Cl)s2)C1)c1ccc(Cl)o1 [ZINC000357905855] | 0.23 K | – | –
O=C(NCc1ccccc1O)c1ccc(F)cc1 [ZINC000082283111] | – | 0.67 K | –
Cc1ccc(NC(=O)N2CC(O)(c3ccc(Cl)cc3)C2)s1 [ZINC000633809751] | 0.48 K | – | –
O=C(NCc1cnn(-c2ccccc2)c1)c1cc(C2CC2)no1 [ZINC000045518705] | -0.07 K | – | –
O=C(Nc1noc2c1CCCC2)C1CC12CCC2 (stereo not shown) [compound 1] | – | – | OGG1 inhibition, dose-response (Figure2C) (human OGG1 enzyme [2]; Concentration (M) 9.67e-7): 3.85 and 6.91; OGG1 inhibition, dose-response (Figure2C) (human OGG1 enzyme [2]; Concentration (M) 0.000248): 16.25 and 9.26; OGG1 inhibition, dose-response (Figure2C) (human OGG1 enzyme [2]; Concentration (M) 0.000495): 25.93 and 22.47; inhibition at 99 µM (human OGG1 enzyme [2]; at 99 μM, read-out: percent inhibition of OGG1): < 50%; IC50 (human OGG1 enzyme [2]; listed as Fragment 1): too weak to determine an IC50 value; IC50 (human OGG1 enzyme [2]; read-out: IC50): > 99 µM; ∆Tm (K) (human OGG1 enzyme [1]; [5]): 2.8 K; ΔTm (human OGG1 enzyme [1]): 2.8 K
O=C(NCC1([C](O)c2ccccc2)CC1)c1ccc(Cl)cc1 [ZINC000700852234] | -0.27 K | – | –
Cc1ccccc1CNC(=O)Nc1cnnn1C [ZINC000787791820] | – | -0.02 K | –
COCC(C)(O)C(=O)Nc1cnc2ccccn12 (stereo not shown) [ZINC000618358369] | – | 0.11 K | –
O=C(NCc1ccc2oc(=O)[nH]c2c1)c1cc(C2CC2)on1 [ZINC000025095824] | 0.10 K and 0.1 K | – | –
Cc1cc(NC(=O)c2coc(C3CC3)n2)cs1 [ZINC000634423932] | – | -0.08 K | –
Cc1ccc(CNC(=O)c2ccc(F)nc2)cc1 [compound 3] | – | 0.6 K | IC50 (human OGG1 enzyme [2]; [4]): > 100 µM; ∆Tm (K) (human OGG1 enzyme [1]; [5]): 0.6 K
CCc1ccc(CC(=O)Nc2nnc(C3CC3)n2C)cc1 [ZINC000157183023] | Inactivea | – | –
CC(=O)Nc1nc(-c2ccc(Cl)cc2)n[nH]1 [ZINC000517746346] | – | -0.15 K | –

— publication PMC11836371, “Virtual fragment screening for DNA repair inhibitors in vast chemical space” (Nature Communications, 2025)
